We go through 46 molecules from patent US10851079B2, “Piperidine derivative” (OTSUKA PHARMACEUTICAL CO., LTD., priority 2016, dated 2020).

This assay deals with Mycobacteria tuberculosis (M. tuberculosis H37Rv and M. tuberculosis Kurono). As to the kind of experiment: Antibacterial test (agar plate dilution method), minimum inhibitory concentration. Type of assay: cell-based. As to conditions: Mycobacterium tuberculosis, 7H11 agar medium, about 10^6 CFU/mL inoculum, incubation at 37° C., strains H37Rv and Kurono, read-out: minimum inhibitory concentration against Mycobacteria tuberculosis.

Turning to `O=C1Nc2c(Cl)ccc(OC[C@]3(O)CCN(c4ccc(Cl)cc4F)C[C@H]3O)c2CO1` [Example 133], the MIC was ≤ 3.13 µg/mL. As to `O=C1CSc2c(cccc2OC[C@]2(O)CCN(c3ccc(Cl)cc3F)C[C@H]2O)N1` [Example 76], the MIC is ≤ 3.13 µg/mL. For the molecule `Cl.O[C@@H]1CN(c2c(F)cc(Cl)cc2F)CC[C@@]1(O)COc1ccc(F)c2c1CCCN2` [Example 44, (3R,4R)-1-(4-chloro-2,6-difluorophenyl)-4-[(8-fluoro-1,2,3,4-tetrahydroquinolin-5-yl)oxymethyl]piperidine-3,4-diol hydrochloride], the MIC is ≤ 3.13 µg/mL. Turning to `OCc1cc(Cl)ccc1OC[C@]1(O)CCN(c2c(F)cc(Cl)cc2F)C[C@H]1O` [Example 98, (3R,4R)-1-(4-chloro-2,6-difluorophenyl)-4-[[4-chloro-2-(hydroxymethyl)phenoxy]methyl]piperidine-3,4-diol], the MIC was ≤ 3.13 µg/mL. On to `O=C1Nc2cccc(OC[C@]3(O)CCN(c4c(F)cc(Cl)cc4F)C[C@H]3O)c2CO1` [Example 141], for which the MIC was ≤ 3.13 µg/mL.

With `O=C1Cc2c(OC[C@]3(O)CCN(c4ccc(Br)cc4F)C[C@H]3O)ccc(Cl)c2N1` [Example 120], the MIC is ≤ 3.13 µg/mL. Consider `O=C1Cc2c(OCC3(O)CCN(c4c(F)cc(Cl)cc4F)CC3)ccc(F)c2N1` [Example 145, 4-[[1-(4-chloro-2,6-difluorophenyl)-4-hydroxypiperidin-4-yl]methoxy]-7-fluoro-1,3-dihydroindol-2-one], for which the MIC is ≤ 3.13 µg/mL.

As for `O=C1COc2c(OC[C@]3(O)CCN(c4c(F)cc(Cl)cc4F)C[C@H]3O)ccc(Cl)c2N1` [Example 111], the MIC is ≤ 3.13 µg/mL. The figure for `O=C1CCc2c(OC[C@]3(O)CCN(c4c(F)cc(Cl)cc4F)C[C@H]3O)ccc(Cl)c21` [Example 90, 7-chloro-4-[[(3R,4R)-1-(4-chloro-2,6-difluorophenyl)-3,4-dihydroxypiperidin-4-yl]methoxy]-2,3-dihydroinden-1-one] is ≤ 3.13 µg/mL; for `O=C1CSCc2c(cccc2OC[C@]2(O)CCN(c3c(F)cc(Cl)cc3F)C[C@H]2O)N1` [Example 66] it is ≤ 3.13 µg/mL; for `CN1Cc2c(cccc2OC[C@]2(O)CCN(c3c(F)cc(Cl)cc3F)C[C@H]2O)NC1=O` [Example 41] it is ≤ 3.13 µg/mL.

On to `O=C1CCc2c(OC[C@]3(O)CCN(c4ccc(Br)cc4F)C[C@H]3O)ccnc2N1` [Example 71], for which the MIC was ≤ 3.13 µg/mL. With `O[C@@H]1CN(c2c(F)cc(Cl)cc2F)CC[C@@]1(O)COc1ccc(Cl)c2[nH]c(=S)ccc12` [Example 108], the MIC was ≤ 3.13 µg/mL. For `O[C@@H]1CN(c2c(F)cc(Cl)cc2F)CC[C@@]1(O)COc1ccc(Br)c2ccoc12` [Example 23] the value was ≤ 3.13 µg/mL. As for `O=c1[nH]c2c(F)ccc(OCC3(O)CCN(c4c(F)cc(Cl)cc4F)CC3)c2s1` [Example 147, 7-[[1-(4-chloro-2,6-difluorophenyl)-4-hydroxypiperidin-4-yl]methoxy]-4-fluoro-3H-1,3-benzothiazol-2-one], the MIC is ≤ 3.13 µg/mL. In the case of `O=c1[nH]c2c(F)ccc(OC[C@]3(O)CCN(c4ccc(Br)cc4F)C[C@H]3O)c2s1` [Example 140], the MIC is ≤ 3.13 µg/mL. Consider `O=C1CCCc2c(OC[C@]3(O)CCN(c4c(F)cc(Cl)cc4F)C[C@H]3O)ccc(Cl)c2N1` [Example 84], for which the MIC is ≤ 3.13 µg/mL.

For the molecule `CNC(=O)c1cc(Cl)ccc1OC[C@]1(O)CCN(c2c(F)cc(Cl)cc2F)C[C@H]1O` [Example 101], the MIC is ≤ 3.13 µg/mL. For the molecule `O=C1CCCc2c(OCC3(O)CCN(c4c(F)cc(Cl)cc4F)CC3)ccc(Cl)c2N1` [Example 79], the MIC was ≤ 3.13 µg/mL. For `O[C@@H]1CN(c2c(F)cc(Cl)cc2F)CC[C@@]1(O)COc1ccc(F)c2nc(Cl)sc12` [Example 135], the MIC was ≤ 3.13 µg/mL. On to `NC(=O)Cc1cc(F)ccc1OC[C@]1(O)CCN(c2c(F)cc(Cl)cc2F)C[C@H]1O` [Example 117, 2-[5-fluoro-2-[[(3R,4R)-1-(4-chloro-2,6-difluorophenyl)-3,4-dihydroxypiperidin-4-yl]methoxy]phenyl]acetamide], for which the MIC is ≤ 3.13 µg/mL. The figure for `O=C1NCc2c(OC[C@]3(O)CCN(c4ccc(Br)cc4F)C[C@H]3O)ccc(F)c2N1` [Example 131] is ≤ 3.13 µg/mL; for `O=c1cnc2c(OC[C@]3(O)CCN(c4ccc(Br)cc4F)C[C@H]3O)cccc2[nH]1` [Example 50] it is ≤ 3.13 µg/mL; for `O=C1Nc2cccc(OC[C@]3(O)CCN(c4ccc(Cl)cc4F)C[C@H]3O)c2CS1` [Example 68] it is ≤ 3.13 µg/mL. `O[C@@H]1CN(c2c(F)cc(Cl)cc2F)CC[C@@]1(O)COc1ccc(Cl)c2[nH]ccc12` [Example 113]: the MIC was ≤ 3.13 µg/mL.

Take `O=C1Cc2c(OC[C@]3(O)CCN(c4c(F)cc(Cl)cc4F)C[C@H]3O)ccc(Cl)c2N1` [Example 95]: the MIC was ≤ 3.13 µg/mL. `Cn1c(=O)cnc2c(OC[C@]3(O)CCN(c4c(F)cc(Cl)cc4F)C[C@H]3O)cccc21` [Example 53, 1-methyl-5-[[(3R,4R)-1-(4-chloro-2,6-difluorophenyl)-3,4-dihydroxypiperidin-4-yl]methoxy]quinoxalin-2-one]: the MIC was ≤ 3.13 µg/mL.

Consider `O=c1cnc2cccc(OC[C@]3(O)CCN(c4ccc(Cl)cc4F)C[C@H]3O)c2[nH]1` [Example 51], for which the MIC was ≤ 3.13 µg/mL. For `O=C1COCc2c(cccc2OC[C@]2(O)CCN(c3c(F)cc(Cl)cc3F)C[C@H]2O)N1` [Example 65], the MIC is ≤ 3.13 µg/mL. For `O[C@@H]1CN(c2c(F)cc(Cl)cc2F)CC[C@@]1(O)COc1cccc2[nH]cnc12` [Example 34] the value was ≤ 3.13 µg/mL. As for `Cn1c(=O)c(=O)[nH]c2c(OC[C@]3(O)CCN(c4c(F)cc(Cl)cc4F)C[C@H]3O)ccc(F)c21` [Example 146], the MIC was ≤ 3.13 µg/mL. For the molecule `OC1(COc2cccc3cnccc23)CCN(c2ccc(Cl)cc2F)CC1` [Example 1, 1-(4-chloro-2-fluorophenyl)-4-(isoquinolin-5-yloxymethyl)piperidin-4-ol], the MIC was ≤ 3.13 µg/mL. On to `Cc1c(OC[C@]2(O)CCN(c3c(F)cc(Cl)cc3F)C[C@H]2O)ccc(Cl)c1NC=O` [Example 105], for which the MIC was ≤ 3.13 µg/mL.

As for `CC(=O)Nc1cc(F)ccc1OC[C@]1(O)CCN(c2c(F)cc(Cl)cc2F)C[C@H]1O` [Example 62], the MIC was ≤ 3.13 µg/mL. `CC(C)(C)N1Cc2c(OC[C@]3(O)CCN(c4c(F)cc(Cl)cc4F)C[C@H]3O)cccc2C1=O` [Example 9]: the MIC was ≤ 3.13 µg/mL. Consider `O[C@@H]1CN(c2c(F)cc(Cl)cc2F)CC[C@@]1(O)COc1cccc2[nH]ncc12` [Example 28], for which the MIC is ≤ 3.13 µg/mL. Take `Cn1c(=O)[nH]c2cccc(OC[C@]3(O)CCN(c4c(F)cc(Cl)cc4F)C[C@H]3O)c21` [Example 11]: the MIC is ≤ 3.13 µg/mL. With `O[C@@H]1CN(c2c(F)cc(Cl)cc2F)CC[C@@]1(O)COc1ccc(Cl)c2cccnc12` [Example 6, (3R,4R)-1-(4-chloro-2,6-difluorophenyl)-4-[(5-chloroquinolin-8-yl)oxymethyl]piperidine-3,4-diol], the MIC is ≤ 3.13 µg/mL. With `OC1CCc2c(OC[C@]3(O)CCN(c4c(F)cc(Cl)cc4F)C[C@H]3O)cccc21` (stereo partly drawn) [Example 24, (3R,4R)-1-(4-chloro-2,6-difluorophenyl)-4-[(1-hydroxy-2,3-dihydro-1H-inden-4-yl)oxymethyl]piperidine-3,4-diol], the MIC was ≤ 3.13 µg/mL. The figure for `O=c1[nH]c2c(Cl)ccc(OC[C@]3(O)CCN(c4c(F)cc(Cl)cc4F)C[C@H]3O)c2s1` [Example 122] is ≤ 3.13 µg/mL; for `Cc1noc2cccc(OC[C@]3(O)CCN(c4c(F)cc(Cl)cc4F)C[C@H]3O)c12` [Example 32] it is ≤ 3.13 µg/mL; for `O=C1COc2c(OCC3(O)CCN(c4c(F)cc(Cl)cc4F)CC3)ccc(Cl)c2N1` [Example 80] it is ≤ 3.13 µg/mL.

On to `COC(=O)c1cc(Cl)ccc1OC[C@]1(O)CCN(c2c(F)cc(Cl)cc2F)C[C@H]1O` [Example 92], for which the MIC is ≤ 3.13 µg/mL. In the case of `O=C1CCc2c(OC[C@]3(O)CCN(c4c(F)cc(Cl)cc4F)C[C@H]3O)cccc21` [Example 17], the MIC is ≤ 3.13 µg/mL. For `Nc1nc2c(Cl)ccc(OC[C@]3(O)CCN(c4c(F)cc(Cl)cc4F)C[C@H]3O)c2s1` [Example 127, (3R,4R)-4-[(2-amino-4-chloro-1,3-benzothiazol-7-yl)oxymethyl]-1-(4-chloro-2,6-difluorophenyl)piperidine-3,4-diol], the MIC is ≤ 3.13 µg/mL.

Consider `O[C@@H]1CN(c2ccc(Cl)cc2F)CC[C@@]1(O)COc1ccc(Cl)c2[nH]ncc12` [Example 47], for which the MIC was ≤ 3.13 µg/mL.
